These results are taken from patent US9951039B2, “Pyrimidines for treatment of bacterial infections” (The Hong Kong Polytechnic University, priority 2016, dated 2018).

The test system of test [1] is S. aureus ATCC BAA-1720 (methicillin resistant). As to the kind of experiment: MIC against clinically isolated strain 3. In kind it is cell-based. The conditions noted are these: Staphylococcus aureus, ATCCBAA1720. On the procedure: Procedure of Antimicrobial susceptibility test: The MIC value of compounds was measured in the antimicrobial susceptibility test using the broth microdilution procedure in accordance with the CLSI guidelines.^21 Cation-adjusted Mueller Hinton broth (CA-MHB) was used for all the S. aureus strains in the assay. Cells in exponential phase of growth were diluted to approximately 5×10^5 cfu/mL. Stock solutions of each compound were freshly dissolved in dimethyl sulfoxide (DMSO). Then, serial dilutions of each compound in CA-MHB medium were added into 96-well microplate. The final percentage of DMSO in the assay was 1%. Control experiments were performed with 1% DMSO instead of the compound solution. After being incubated at 37° C. for 18 h, OD600 value of cells was measured on a microplate reader and the percentage of bacterial cell inhibition with respect to controls was calculated. The MIC value was defined as the lowest compound concentration at which the growth of bacteria was inhibited by ≥90%. Three independent assays were performed for each compound.
Results: Three compounds, namely 14av_amine16, 14dv_amine16 and 14dv_amine06, were selected to be tested against nine in-house clinically isolated bacterial strains including S. aureus ATCC29247, which is an ampicillin resistant strain, S. aureus ATCC BAA-41, ATCC BAA-1717, ATCC BAA-1720, ATCC 43300 which are methicillin resistant strains and four USA300 strains, (#417, #757, #1799 and #2690), which are the predominant strain type of community-associated MRSA strains in the United States.

In the next test the target is T1, S. aureus FtsZ (Staphylococcus aureus, UniProt P0A031).
T1 construct: 6-histidine tag; made in house; host or cells: E. coli BL21(DE3)
T1 sequence (P0A031 1-390): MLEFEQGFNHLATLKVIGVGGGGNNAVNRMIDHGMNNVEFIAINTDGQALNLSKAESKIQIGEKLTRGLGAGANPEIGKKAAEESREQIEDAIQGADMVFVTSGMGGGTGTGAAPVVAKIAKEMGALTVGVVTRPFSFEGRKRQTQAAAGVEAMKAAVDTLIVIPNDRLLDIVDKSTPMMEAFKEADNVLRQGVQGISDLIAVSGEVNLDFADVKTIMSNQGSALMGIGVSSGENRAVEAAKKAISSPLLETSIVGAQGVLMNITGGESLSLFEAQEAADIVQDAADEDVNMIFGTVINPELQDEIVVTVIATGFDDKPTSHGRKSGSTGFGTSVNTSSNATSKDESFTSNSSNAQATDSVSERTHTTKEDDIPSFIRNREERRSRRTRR
As to the kind of experiment: Saturation Transfer Difference (STD) NMR study. In kind it is binding. The conditions noted are these: 298K, line broadening and STD effect. Here is the method:
Procedure for expression and purification of S. aureus FtsZ protein: S. aureus FtsZ protein was prepared as previous reported.^16a In brief, E. coli BL21(DE3) cells, transformed with a pRSET-A-S vector carrying S. aureus FtsZ with a 6-histidine tag attached, were streaked on a nutrient agar plate containing 50 μg/mL ampicillin. After overnight incubation at 37° C., a single colony was inoculated into 5 mL of Luria-Bertani (LB) medium in the presence of 50 μg/mL ampicillin, which was then incubated at 37° C., with shaking at 250 rpm for 16 h. […]
Procedure STD NMR study: STD NMR experiments were performed on a Bruker Avance III 600 NMR spectrometer equipped with a QCI cryoprobe at 298K. Spectra were recorded with a carrier set at 0.5 ppm for on-resonance irradiation and 30 ppm for off-resonance irradiation. Control spectra were recorded under identical conditions without compound to test for artifacts. Selective protein saturation was accomplished using a train of 40 Gauss-shaped pulses (50 ms with 1 ms delay between pulses) for a total saturation time of 2 s at an experimentally determined optimal power (7.7625 W on the probe); a T1p spinlock filter (20-50 ms) was incorporated to suppress protein resonances. STD spectra were recorded using a minimum of 128 scans and 32 k points covering a spectral width of 6600 Hz. […]

The next test concerns MRSA ATCC 43300. As to the kind of experiment: Frequency of resistance (FOR) determination. In kind it is cell-based, S. aureus. The note with it: 8 folds of MIC, after 48 hours' incubation. Here is the method:
Procedure: MRSA ATCC 43300 cells were grown to late-exponential phase (1×10^9 CFU/mL) and spread on agars plates containing 1% DMSO or compound 14av_amine16 at 8 folds of MIC level. The plates were incubated for 48 hours to allow resistant mutants to grow. The spontaneous FOR was calculated as the number of resistance colonies divided by the number of CFUs originally plated. The assay was performed in triplicates.

The structures appear in SMILES notation. In brackets after ≈: the same amount, converted by molar mass.

In test [1], `CCC(CC)c1cc(CCN2CCCN(Cc3ccc(C(F)(F)F)cc3)CC2)nc(-c2ccncc2)n1` [Compound 14av_amine16, 1-(2-(6-(pentan-3-yl)-2-(pyridin-4-yl)pyrimidin-4-yl)ethyl)-4-(4-(trifluoromethyl)benzyl)-1,4-diazepane] yielded an MIC of 12 µM (≈ 6.14 µg/mL). Further, the “binding to FtsZ protein by STD NMR” value at S. aureus FtsZ was “indeed bind to FtsZ protein”. Also, the “colonies on plates treated with compound” value in the test on MRSA ATCC 43300 is reported as “no colony was observed”.

Usually MIC stands for the lowest concentration found to suppress growth.
